How the values were obtained:
SNK6 xenograft [1] = assay: Mouse survival, Kaplan–Meier analysis; type: in vivo; details: nude mice, intratumoral 50 µM peptide every 2 days from day ~18, compared with CTL group, n = 9
Protocol: Statistical analysis. The data was given as mean ± SEM; all of the experiments were performed at least in quadruplicate unless otherwise indicated. One-way ANOVA followed by the Bonferroni post hoc test was used to determine statistical significance of different groups. The mouse survival curve was determined through Kaplan-Meier survival analysis using SPSS 22 software, and a P value < 0.05 was considered significant (8).

U266B1 = assay: Cell death IC50 by PI staining/FACS; type: cell-based; details: Human B lymphoblast/EBV(−), 0.1–15 µM, 6 h (suspension) or 12 h (adherent cells), mean ± SEM, read-out: Peptide IC50 (µM), cell death, U266B1
Protocol: (§1) Measurement of apoptosis and cell death. Apoptosis was evaluated by TUNEL assay using the In Situ Cell Death Detection Kit™ (Roche). Cells were fixed in 4% paraformaldehyde and labeled with TUNEL reagents. Stained cells were photographed by a fluorescence microscope (11). For cell death analysis, the propidium iodide (PI) staining was performed by addition of 6.25 µg/ml of PI to the cells, and cell death was immediately evaluated by FACS analysis (3).

HepG2 = assay: Cell death IC50 by PI staining/FACS; type: cell-based; details: Human hepatocellular carcinoma/EBV(−), 0.1–15 µM, 6 h (suspension) or 12 h (adherent cells), mean ± SEM, read-out: Peptide IC50 (µM), cell death, HepG2
Protocol: as §1

SNT8 = assay: Cell death IC50 by PI staining/FACS; type: cell-based; details: Human natural killer/T-cell lymphoma/EBV(+), 0.1–15 µM, 6 h (suspension) or 12 h (adherent cells), mean ± SEM, read-out: Peptide IC50 (µM), cell death, SNT8
Protocol: as §1

HL-60 = assay: Cell death IC50 by PI staining/FACS; type: cell-based; details: Human acute promyelocytic leukemia/EBV(−), 0.1–15 µM, 6 h (suspension) or 12 h (adherent cells), mean ± SEM, read-out: Peptide IC50 (µM), cell death, HL-60
Protocol: as §1

SW480 = assay: Cell death IC50 by PI staining/FACS; type: cell-based; details: Human colorectal adenocarcinoma/EBV(−), 0.1–15 µM, 6 h (suspension) or 12 h (adherent cells), mean ± SEM, read-out: Peptide IC50 (µM), cell death, SW480
Protocol: as §1

Kasumi-1 = assay: Cell death IC50 by PI staining/FACS; type: cell-based; details: Human acute myeloblastic leukemia/EBV(−), 0.1–15 µM, 6 h (suspension) or 12 h (adherent cells), mean ± SEM, read-out: Peptide IC50 (µM), cell death, Kasumi-1
Protocol: as §1

Hela = assay: Cell death IC50 by PI staining/FACS; type: cell-based; details: Human cervix adenocarcinoma/EBV(−), 0.1–15 µM, 6 h (suspension) or 12 h (adherent cells), mean ± SEM, read-out: Peptide IC50 (µM), cell death, Hela
Protocol: as §1

NK92 = assay: Cell death IC50 by PI staining/FACS; type: cell-based; details: Human natural killer non-Hodgkin’s lymphoma/EBV(−), 0.1–15 µM, 6 h (suspension) or 12 h (adherent cells), mean ± SEM, read-out: Peptide IC50 (µM), cell death, NK92
Protocol: as §1

MM.1R = assay: Cell death IC50 by PI staining/FACS; type: cell-based; details: Human B lymphoblast/EBV(−), 0.1–15 µM, 6 h (suspension) or 12 h (adherent cells), mean ± SEM, read-out: Peptide IC50 (µM), cell death, MM.1R
Protocol: as §1

Namalwa = assay: Cell death IC50 by PI staining/FACS; type: cell-based; details: Human Burkitt’s lymphoma/EBV(+), 0.1–15 µM, 6 h (suspension) or 12 h (adherent cells), mean ± SEM, read-out: Peptide IC50 (µM), cell death, Namalwa
Protocol: as §1

MCF7 = assay: Cell death IC50 by PI staining/FACS; type: cell-based; details: Human breast adenocarcinoma/EBV(−), 0.1–15 µM, 6 h (suspension) or 12 h (adherent cells), mean ± SEM, read-out: Peptide IC50 (µM), cell death, MCF7
Protocol: as §1

HANK1 = assay: Cell death IC50 by PI staining/FACS; type: cell-based; details: Human natural killer/T-cell lymphoma/EBV(+), 0.1–15 µM, 6 h (suspension) or 12 h (adherent cells), mean ± SEM, read-out: Peptide IC50 (µM), cell death, HANK1
Protocol: as §1

RPMI 8226 = assay: Cell death IC50 by PI staining/FACS; type: cell-based; details: Human B lymphoblast/EBV(−), 0.1–15 µM, 6 h (suspension) or 12 h (adherent cells), mean ± SEM, read-out: Peptide IC50 (µM), cell death, RPMI 8226
Protocol: as §1

MDA-MB-231 = assay: Cell death IC50 by PI staining/FACS; type: cell-based; details: Human breast adenocarcinoma/EBV(−), 0.1–15 µM, 6 h (suspension) or 12 h (adherent cells), mean ± SEM, read-out: Peptide IC50 (µM), cell death, MDA-MB-231
Protocol: as §1

ABCB1 = assay: mRNA level by qPCR in SNK6 cells; type: cell-based, human; details: 0.5 µM peptide, 6 h, vs CTL, n = 4 (Fig. 3f)
Protocol: Fig. 3 Peptide for the last eight aa of HKDC1 at the C-terminal (Tf-D-HKC8) inhibits EBV replication and P-gp expression through ROS generation and DNA damage in ENKTL cells. SNK6 cells were treated with control (CTL), Tf-D-HKN15, Tf-D-HKC15, or Tf-D-HKC8 peptide (0.5 µM) for 6 h and the cells were used for biomedical analysis. a ROS formation, n = 5. b 3-nitrotyrosine (3-NT) formation, n = 5. c 8-OHdG formation, n = 5. d Quantitation of γH2AX formation, n = 5. e Representative western blotting bands for d. f mRNA level by qPCR for BZLF1, BMRF1, and ABCB1, n = 4. g Protein quantitation for Zta, EA-D, and P-gp, n = 5. h Representative pictures of western blots for g. i EBV viral genomes/cell by qPCR, n = 4. *P < 0.05, vs CTL group; ^¶P < 0.05, vs Tf-D-HKC15 group. Results were expressed as mean ± SEM.

SNK6 xenograft [2] = assay: Superoxide anion release from tumor tissue; type: in vivo, mouse; details: nude mice, intratumoral 50 µM peptide every 2 days from day ~18, tissue day 50, chemiluminescence vs CTL, n = 5
Protocol: In vivo superoxide release analysis. Superoxide anion (O2^.-) release from tumor tissues was determined using a luminol-EDTA-Fe enhanced chemiluminescence (CL) system supplemented with DMSO-TBAC (Dimethyl sulfoxide-tetrabutyl-ammonium chloride) solution for extraction of released O2^.- from tissues, as described previously (11). Superoxide levels were calculated from the standard curve generated by the xanthine/xanthine oxidase reaction (8).

Substance: HAIYPRH-ITAVAKRLQQAQKEN [Tf-D-HKC15]
- mouse survival (SNK6 xenograft [1]): 197%
- IC50 (U266B1): 2.2 ± 0.6 µM
- IC50 (HepG2): > 15 µM
- IC50 (SNT8): 1.1 ± 0.4 µM
- IC50 (HL-60): 2.2 ± 0.6 µM
- IC50 (SW480): 8.9 ± 0.9 µM
- IC50 (Kasumi-1): 2.7 ± 0.9 µM
- IC50 (Hela): 9.8 ± 0.6 µM
- IC50 (NK92): 1.5 ± 0.6 µM
- IC50 (MM.1R): 2.3 ± 0.7 µM
- IC50 (Namalwa): 0.9 ± 0.3 µM
- IC50 (MCF7): > 15 µM
- IC50 (HANK1): 1.4 ± 0.6 µM
- IC50 (RPMI 8226): 1.9 ± 0.7 µM
- IC50 (MDA-MB-231): 14.4 ± 0.8 µM
- ABCB1 mRNA (ABCB1): 58%
- superoxide anion release from tumor (SNK6 xenograft [2]): 203%

Substance: HAIYPRH-LQQAQKEN [Tf-D-HKC8]
- mouse survival (SNK6 xenograft [1]): 335%
- IC50 (U266B1): 1.4 ± 0.3 µM
- IC50 (HepG2): > 15 µM
- IC50 (SNT8): 0.6 ± 0.3 µM
- IC50 (HL-60): 1.7 ± 0.4 µM
- IC50 (SW480): 6.7 ± 0.8 µM
- IC50 (Kasumi-1): 1.8 ± 0.6 µM
- IC50 (Hela): 6.8 ± 0.9 µM
- IC50 (NK92): 0.9 ± 0.4 µM
- IC50 (MM.1R): 1.6 ± 0.4 µM
- IC50 (Namalwa): 0.7 ± 0.4 µM
- IC50 (MCF7): > 15 µM
- IC50 (HANK1): 0.7 ± 0.4 µM
- IC50 (RPMI 8226): 1.3 ± 0.6 µM
- IC50 (MDA-MB-231): 11.6 ± 1.1 µM
- ABCB1 mRNA (ABCB1): 27%
- superoxide anion release from tumor (SNK6 xenograft [2]): 297%

Reference: publication PMC7515829, “HKDC1 C-terminal based peptides inhibit extranodal natural killer/T-cell lymphoma by modulation of mitochondrial function and EBV suppression” (Leukemia, 2020)
